# Reference: ChEMBL document CHEMBL5120859, “Optimization of 4-arylthiophene-3-carboxylic acid derivatives as inhibitors of ANO1: Lead optimization studies toward their analgesic efficacy for inflammatory pain” (Eur J Med Chem, 2022)
# The source made the active and inactive calls. No cut-off for these calls is given here.
# Tests used:
# [1] = Cytotoxicity against human HEK293 cells assessed as inhibition of cell growth at 30 uM incubated for 72 hrs by CCK-8 assay; assay type: toxicity, cell-based
# [2] = target: T1, Anoctamin-1 (Homo sapiens) (UniProt Q5XXA6); experiment: Inhibition of YFP tagged ANO1 (unknown origin) expressed in FRT cells at 30 uM incubated for 24 hrs by whole cell patch clamp electrophysiology relative to control; assay type: cell-based
# T1 sequence (whole entry): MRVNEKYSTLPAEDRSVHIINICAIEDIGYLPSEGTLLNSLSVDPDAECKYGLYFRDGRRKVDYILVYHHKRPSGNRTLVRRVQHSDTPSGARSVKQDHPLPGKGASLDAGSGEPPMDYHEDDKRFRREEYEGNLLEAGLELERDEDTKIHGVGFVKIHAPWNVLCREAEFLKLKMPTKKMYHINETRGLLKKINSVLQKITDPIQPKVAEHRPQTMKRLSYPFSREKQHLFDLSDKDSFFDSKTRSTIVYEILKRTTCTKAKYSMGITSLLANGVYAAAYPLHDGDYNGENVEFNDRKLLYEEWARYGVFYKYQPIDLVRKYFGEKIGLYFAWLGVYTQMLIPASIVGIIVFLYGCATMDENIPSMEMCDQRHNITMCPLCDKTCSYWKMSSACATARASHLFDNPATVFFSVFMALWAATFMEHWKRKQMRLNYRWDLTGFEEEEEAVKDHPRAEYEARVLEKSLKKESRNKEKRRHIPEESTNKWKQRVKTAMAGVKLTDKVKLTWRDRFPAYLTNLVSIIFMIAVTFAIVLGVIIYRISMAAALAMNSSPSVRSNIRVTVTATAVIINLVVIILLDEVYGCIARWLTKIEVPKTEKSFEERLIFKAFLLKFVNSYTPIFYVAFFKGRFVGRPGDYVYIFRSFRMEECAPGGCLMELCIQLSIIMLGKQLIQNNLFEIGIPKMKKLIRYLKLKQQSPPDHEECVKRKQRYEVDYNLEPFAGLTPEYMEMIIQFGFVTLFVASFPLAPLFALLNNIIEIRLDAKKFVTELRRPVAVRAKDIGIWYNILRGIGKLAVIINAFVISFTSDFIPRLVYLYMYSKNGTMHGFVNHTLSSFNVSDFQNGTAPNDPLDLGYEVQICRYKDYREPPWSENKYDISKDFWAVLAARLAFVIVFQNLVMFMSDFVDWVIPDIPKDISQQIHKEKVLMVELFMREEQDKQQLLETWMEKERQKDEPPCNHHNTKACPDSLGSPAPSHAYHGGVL
# [3] = target: Voltage-gated inwardly rectifying potassium channel KCNH2 (Homo sapiens, UniProt Q12809); experiment: Cardiotoxicity against human ERG expressed in HEK293 cells by patch clamp assay; assay type: toxicity, cell-based
# Chain of Voltage-gated inwardly rectifying potassium channel KCNH2 (Q12809 whole entry): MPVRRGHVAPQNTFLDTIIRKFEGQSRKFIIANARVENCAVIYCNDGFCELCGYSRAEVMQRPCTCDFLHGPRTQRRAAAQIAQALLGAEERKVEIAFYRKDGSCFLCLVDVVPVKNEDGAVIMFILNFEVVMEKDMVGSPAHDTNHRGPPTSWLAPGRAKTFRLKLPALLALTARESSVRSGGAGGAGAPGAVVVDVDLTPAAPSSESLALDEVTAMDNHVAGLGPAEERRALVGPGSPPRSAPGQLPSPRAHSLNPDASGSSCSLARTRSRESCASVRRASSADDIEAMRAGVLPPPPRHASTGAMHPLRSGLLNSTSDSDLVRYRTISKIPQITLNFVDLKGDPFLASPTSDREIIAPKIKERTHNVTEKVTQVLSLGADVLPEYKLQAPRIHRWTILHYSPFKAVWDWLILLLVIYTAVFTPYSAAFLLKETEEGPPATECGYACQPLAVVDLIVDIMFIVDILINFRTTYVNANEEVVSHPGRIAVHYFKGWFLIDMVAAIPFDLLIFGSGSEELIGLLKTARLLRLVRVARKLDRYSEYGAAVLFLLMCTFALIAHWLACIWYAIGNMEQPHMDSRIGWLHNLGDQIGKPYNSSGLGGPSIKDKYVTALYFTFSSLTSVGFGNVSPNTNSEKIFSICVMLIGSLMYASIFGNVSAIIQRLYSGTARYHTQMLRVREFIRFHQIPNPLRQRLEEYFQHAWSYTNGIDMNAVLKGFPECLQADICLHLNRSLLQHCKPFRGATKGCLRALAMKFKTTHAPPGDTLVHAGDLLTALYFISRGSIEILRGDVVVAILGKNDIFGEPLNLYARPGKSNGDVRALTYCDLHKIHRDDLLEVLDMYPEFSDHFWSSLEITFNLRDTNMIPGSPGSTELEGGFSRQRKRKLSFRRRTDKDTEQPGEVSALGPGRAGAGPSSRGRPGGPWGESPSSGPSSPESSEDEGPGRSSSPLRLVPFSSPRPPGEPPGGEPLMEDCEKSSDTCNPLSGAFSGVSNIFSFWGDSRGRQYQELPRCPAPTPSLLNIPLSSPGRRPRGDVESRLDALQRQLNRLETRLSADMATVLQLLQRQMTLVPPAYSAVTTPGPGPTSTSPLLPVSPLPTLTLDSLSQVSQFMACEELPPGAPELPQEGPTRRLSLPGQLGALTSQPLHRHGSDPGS
# [4] = MRT (0 to t) in C57BL/6 mouse at 80 mg/kg,IG measured upto 24 hrs by HPLC-MS/MS analysis; assay type: ADME, organism-based; conditions: in vivo, po
# [5] = Tmax in C57BL/6 mouse at 40 mg/kg,IG measured upto 24 hrs by HPLC-MS/MS analysis; assay type: ADME, organism-based; conditions: in vivo, po
# [6] = Ratio of drug concentration in brain to plasma in C57BL/6 mouse at 40 mg/kg,IG measured after 6 hrs by HPLC analysis; assay type: ADME, organism-based; conditions: po
# [7] = Tmax in C57BL/6 mouse at 40 mg/kg,iv measured upto 24 hrs by HPLC-MS/MS analysis; assay type: ADME, organism-based; conditions: in vivo
# [8] = Toxicity in C57BL/6 mouse model of capsaicin-induced allodynia assessed as increase in body temperature at 40 to 80 mg/kg,po; assay type: organism-based; conditions: in vivo, dose 40-80 mg/kg
# [9] = AUC (0 to t) in C57BL/6 mouse at 80 mg/kg,IG measured upto 24 hrs by HPLC-MS/MS analysis; assay type: ADME, organism-based; parameters: dose 80 mg/kg, time < 24 hrs, route ig; conditions: in vivo, po
# Mus musculus = experiment: Analgesic activity in C57BL/6 mouse model of CFA-induced mechanical hyperalgesia assessed as […] at 40 to 80 mg/kg,po measured after 12 hrs by Von Frey test; assay type: functional, organism-based; conditions: dose 40-80 mg/kg
smiles,measurement,setting,value
O=C(Nc1scc(-c2ccc(Cl)cc2)c1C(=O)O)c1cc(F)ccc1F,"inhibition at 72 h, 30 µM",[1],< 10%
same,inhibition,[2],95.6%
same,IC50,[3],> 30 µM
same,MRT last at 24 h,[4],7.6 h
same,Tmax,[5],15 min
same,Ratio,[6],1.4%
same,Tmax,[7],4.8 min
same,Activity,[8],Non-Toxic
same,AUC(0-t) at 24 h,[9],596 µg·h/mL
same,Activity,Mus musculus,Active
